Measured values from patent publication US20150051246A1 (priority 2013, published 2015).

Tests used:
[1] = tested on: healthy adults; test: Verbal Learning Task (VLT) in healthy adults, 18 to 35 years; assay type: in vivo, human
Text: The study utilized Verbal Learning Task (VLT) to analyze the increased number of words remembered following roflumilast administration. The VLT consisted of displaying 30 monosyllable words on a computer screen for a period of 60 seconds. Immediately after the presentation of the words on the computer screen subjects were asked to report as many words as they could recall by memory. This process (presentation and recall) was repeated further two times (VLT, immediate recall, 3 trials). In addition, 45 min and 24 h after the last presentation, subjects were again asked to report as many words as they could recall by memory (VLT, delayed recall 45 min and 24 h). The set of three recall trials was conducted 60 minutes following administration of the roflumilast therapy
(§1) Statistical Data Analyses Human data was analyzed using IBM SPSS Statistics version 20. General Linear Models for repeated measures were applied with the placebo condition included as contrast. Statistical outcomes for Tests of Within-Subjects Effects and Tests of Within-Subjects Contrasts were regarded for immediate and delayed free recall scores and for the summed immediate recall score (i.e. immediate 1+immediate 2+immediate 3). The factor Treatment (4 levels; placebo, roflumilast 100 mcg, roflumilast 300 mcg and roflumilast 1000 mcg) was included as a within subjects factor. For the analysis of the EEG data, the factor Channel (5 levels; Fz, FCz, Cz, CPz, and Pz) was included as a second within subjects factor. Peak and latency values of three memory related ERP's were analysed; i.e. P300, N400 and P600. In case of significant findings (p<0.05) post-hoc t-tests were performed to reveal which of the five midline electrodes contributed to the effect

[2] = tested on: male C57BL/6NCrl mice; test: Object Location Task (OLT), spatial memory, 24 h retention interval; assay type: in vivo; conditions: for d2 index, discrimination index for T2: 3 h after T1, 24 h interval
Text: The objective of this study was to evaluate the cognitive improvement effects of Roflumilast on spatial memory employing Object Location Task (OLT) in male C57BL/6NCrl mice. Roflumilast was compared with data of the already established PDE4 inhibitor Rolipram in the same model.
Twenty-four 7 month-old male C57BL/6NCrl mice (Charles River, L'Arbresle, France) were used (average body weights: 27.6 g). The animals were kept under a 12/12-hour light/dark cycle (lights on from 07.00 pm to 07.00 am) with free access to food and water. All testing was done between 09.00 am and maximally 06.00 pm.
Both rolipram (Sigma-Aldrich St. Louis, USA; MW 275.34) and roflumilast (Biocrea, Radebeul, Germany; MW 403.21) were dissolved in dimethylsulfoxide (DMSO) and kept at 4° C.; this stock solution was used for further dilutions in 0.5% methylcellulose. Each of rolipram and roflumilast is used in form of its free base. All injected solutions consisted of 0.5% methylcellulose with a fixed DMSO percentages (1.2%) (vehicle).
For the Object Location Task (OLT), doses of 0.01 mg/kg, 0.03 mg/kg and 0.1 mg/kg of Rolipram or Roflumilast or vehicle were administered subcutaneously (s.c.). Based on previous findings, PDE4 inhibitor single administration was performed 3 hours after the first trial as this has an optimum effect on object memory performance. The injection volume was 5 μl/g.
The OLT apparatus consisted of a circular arena, 40 cm in diameter. Half of the 40 cm transparent polyvinyl chloride wall was covered from the outside with white paper. Two objects were placed symmetrically about 10 cm away from the wall on the separation line, between the transparent and covered side of the arena. Four different sets of objects were available: (1) a cone made of brass (maximal diameter 6 cm and total height 3.8 cm), (2) a transparent glass bottle (diameter 2.7 cm, height 8.5 cm) filled with sand and water, (3) a massive metal cube (2.5 cm×5 cm×7.5 cm) with two holes (diameter 1.5 cm), and (4) a massive aluminum cube with a tapering top (4.5 cm×4.5 cm×8.5 cm).
A testing session comprised two trials of 4 minutes. Before each trial, mice were placed in an empty Makrolon cage (incubation cage) for the same amount of time as the trial (4 min). During the first trial (T1), two identical objects were placed symmetrically about 10 cm away from the wall on the separation line between the transparent and covered side of the arena. After the first exploration period of 4 min, the mouse was put back in its home cage. Mice then received treatment at 3 hours post T1. Subsequently, after a predetermined delay interval (24 h), the mouse was placed in the apparatus for the second trial of 4 min (T2). Two identical objects as in T1 were used; one object was placed in the previously used position, whereas the other was placed in a novel position. The novel position of the object could either be a fixed distance towards the front or a fixed distance towards the back of the arena for both objects. The times spent exploring each object during T1 and T2 were recorded manually using a personal computer. All objects and locations were used in a balanced manner to exclude possible object and/or location preferences. To avoid olfactory cues, the objects were thoroughly cleaned with 70% ethanol after each trial. The testing order of conditions was determined randomly.
The measurements reflected the time spent by the mice in exploring each object during T1 and T2. The time spent in exploring the two identical samples in T1 were represented by ‘a1’ and ‘a2’, respectively. The time spent in exploring the sample and the new object in T2 were represented by ‘a’ and ‘b’, respectively. From these exploration times the following variables were calculated: e1, e2, and d2 (Table 1). The d2 index is a relative measure of discrimination corrected for exploratory activity. […]

[3] = tested on: healthy adults; test: EEG Event Related Potentials (P300, N400, P600) during VLT in healthy adults; assay type: in vivo, human; conditions: for ERP P600 amplitude (in words): 100 mcg, during VLT
Method: An electroencephalogram (EEG) cap was used to place a set of 32 EEG electrodes according to the international 10-20 system on the subjects. Event Related Potentials (ERPs) were extracted by averaging the responses within an epoch of 100 ms before and 1000 ms after stimulus onset covering P300, N400, and P600. Separate averages were made for correct and incorrect responses within a task and for different trial types. EEG measurements were done simultaneously with VLT testing. ERPs were calculated from the words that were called during immediate recall (encoding), and from the words that were recognized and from those that were not during the recognition condition at 45 minutes. The ERP components of P300, N400, and P600 were compared to examine whether the initial stimulus processing during the learning trials differs from word to word. Finally, ERPs to the old and new items during the recognition task were measured.
as §1

[4] = assay type: in vivo, human; conditions: human, in vivo
Text: An interim analysis has been performed based on the data of 9 subjects of the Impaired Elderly group and 4 subjects of the Healthy Elderly group. For this purpose, cognitive battery test scores (VLT, SMT, Stroop task and BL-VAS) and concentrations of roflumilast and roflumilast-N-oxide in plasma have been analysed and summarized by dose over each scheduled sampling time using descriptive statistics.

## O=C(Nc1c(Cl)cncc1Cl)c1ccc(OC(F)F)c(OCC2CC2)c1 [roflumilast, N-(3,5-dichloropyridin-4-yl)-3-cyclopropylmethoxy-4-difluoromethoxybenzamide]
[1]; 100 mcg
  number of correct words recalled after 3rd trial (in words): significant increase in the number of correct words recalled
[1]; 100 mcg, 3rd trial, healthy volunteer study
  placebo-corrected fold-improvement: 1.12
[1]; 100 mcg, young volunteers
  number of words on the 3rd trial: 23.7 words
[1]; 300 mcg and 1000 mcg, FIG. 2
  number of correct words recalled (in words): some effect
[1]; single oral dose 100 mcg, after the third trial
  improvement in number of correct words recalled, average: 2.5 words
[2]; 0.01 mg/kg s.c.
  d2 index, discrimination index for T2: 0.04
[2]; 0.03 mg/kg s.c.
  d2 index, discrimination index for T2: 0.34
[2]; 0.1 mg/kg s.c.
  d2 index, discrimination index for T2: 0.00
[2]; s.c.
  dose effective in improving spatial memory: 0.03 mg/kg
[2]; single subcutaneous 0.01 mg/kg
  effect on spatial memory (in words): nearly no effect
[2]; single subcutaneous 0.03 mg/kg
  effect on spatial memory (in words): pronounced effect on spatial memory
[2]; single subcutaneous 0.1 mg/kg
  effect on spatial memory (in words): completely no effect
[3]
  ERP P600 amplitude (in words): strongest increase of amplitude
[3]; listed as Roflumilast
  ERP P600 amplitude (in words): increased amplitude
[3]; 300 mcg and 1000 mcg, FIG. 3
  ERP P600 (in words): some effect
[4]
  exposure: consistent with those previously reported
